Experiments:
CDK1/cyclin B = CDK1/cyclin B (Homo sapiens, UniProt P06493); test: Kinase assay CDK1/cyclin B; type: biochemical; settings: Table 2; read-out: Kinase Inhibition IC50 CDK1 cyclin B
Procedure: (§1) Kinase assays. […] This was achieved by measurement of incorporation of radioactive phosphate from ATP into appropriate polypeptide substrates. Recombinant protein kinases and kinase complexes were produced or obtained commercially. Assays were performed using 96-well plates and appropriate assay buffers (typically 25 mM β-glycerophosphate, 20 mM MOPS, 5 mM EGTA, 1 mM DTT, 1 mM […], pH 7.4), into which were added 2-4 μg of active enzyme with appropriate substrates. The reactions were initiated by addition of Mg/ATP mix (15 mM MgCl2+100 μM ATP with 30-50 kBq per well of [γ-^32P]-ATP) and mixtures incubated as required at 30° C. Reactions were stopped on ice, followed by filtration through p81 filterplates or GF/C filterplates (Whatman Polyfiltronics, Kent, UK). After washing 3 times with 75 mM aq orthophosphoric acid, plates were dried, scintillant added and incorporated radioactivity measured in a scintillation counter (TopCount, Packard Instruments, Pangbourne, Berks, UK). Compounds for kinase assay were made-up as 10 mM stocks in DMSO and diluted into 10% DMSO inrassay buffer.

CDK2/cyclin A = CDK2/cyclin A (Homo sapiens, UniProt P24941); test: Kinase assay CDK2/cyclin A; type: biochemical; settings: Table 2; read-out: Kinase Inhibition IC50 CDK2 cyclin A
Procedure: as §1

CDK2/cyclin E = CDK2/cyclin E (Homo sapiens, UniProt P24941); test: Kinase assay CDK2/cyclin E; type: biochemical; settings: Table 2; read-out: Kinase Inhibition IC50 CDK2 cyclin E
Procedure: as §1

CDK4/cyclin D1 = CDK4/cyclin D1 (Homo sapiens, UniProt P11802); test: Kinase assay CDK4/cyclin D1; type: biochemical; settings: Table 2; read-out: Kinase Inhibition IC50 CDK4 cyclin D1
CDK4/cyclin D1, sequence (P11802 whole entry): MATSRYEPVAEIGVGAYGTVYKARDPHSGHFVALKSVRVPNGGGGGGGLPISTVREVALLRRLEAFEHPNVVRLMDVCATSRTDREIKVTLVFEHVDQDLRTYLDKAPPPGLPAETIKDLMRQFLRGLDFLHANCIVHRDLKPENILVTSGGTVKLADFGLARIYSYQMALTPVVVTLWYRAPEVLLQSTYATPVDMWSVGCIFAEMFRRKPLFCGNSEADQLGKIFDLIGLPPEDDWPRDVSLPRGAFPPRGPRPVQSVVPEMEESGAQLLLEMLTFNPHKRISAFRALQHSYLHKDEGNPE
CDK4/cyclin D1, sequence (P24385 whole entry partner): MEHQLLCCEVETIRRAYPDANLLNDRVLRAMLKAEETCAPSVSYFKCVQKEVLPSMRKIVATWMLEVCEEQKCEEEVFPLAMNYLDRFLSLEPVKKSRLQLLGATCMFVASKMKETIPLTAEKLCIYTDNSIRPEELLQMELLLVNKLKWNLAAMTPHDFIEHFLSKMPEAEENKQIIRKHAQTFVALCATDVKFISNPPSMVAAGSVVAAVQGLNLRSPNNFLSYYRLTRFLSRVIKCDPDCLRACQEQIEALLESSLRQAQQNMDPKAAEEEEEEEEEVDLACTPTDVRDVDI
Procedure: as §1

CDK7/cyclin H = CDK7/cyclin H (Homo sapiens, UniProt P50613); test: CDK7 assay; type: biochemical; settings: Table 2; read-out: Kinase Inhibition IC50 CDK7 cyclin H
CDK7/cyclin H, sequence (P50613 whole entry): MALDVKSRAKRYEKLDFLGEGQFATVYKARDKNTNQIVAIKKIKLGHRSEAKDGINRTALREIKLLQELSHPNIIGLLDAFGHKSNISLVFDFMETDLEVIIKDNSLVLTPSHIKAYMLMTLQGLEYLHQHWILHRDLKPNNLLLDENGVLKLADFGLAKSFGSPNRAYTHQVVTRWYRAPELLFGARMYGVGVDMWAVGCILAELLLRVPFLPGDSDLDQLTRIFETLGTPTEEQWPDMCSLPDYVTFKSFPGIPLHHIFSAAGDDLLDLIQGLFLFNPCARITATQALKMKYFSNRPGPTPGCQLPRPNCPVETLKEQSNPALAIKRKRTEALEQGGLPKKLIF
Procedure: as §1
(§2) CDK 7 and 9 assays. CTD peptide substrate (biotinyl-Ahx-(Tyr-Ser-Pro-Thr-Ser-Pro-Ser)4-NH2; 1-2 mg/mL) and recombinant human CDK7/cyclin H, CDK9/cyclin T1, or CDK9/cyclin K (0.5-2 μg) were incubated for 45 min at 30° C. in the presence of varying amounts of test compound in 20 mM MOPS pH 7.2, 25 mM β-glycerophosphate, 5 mM EGTA, 1 mM DTT, 1 mM sodium vanadate, 15 mM MgCl2, and 100 μM ATP (containing a trace amount of ^32PγATP) in a total volume of 25 μL in a 96-well microtiter plate. The reaction was stopped by placing the plate on ice for 2 min. Avidin (50 μg) was added to each well, and the plate was incubated at room temp for 30 min. The samples were transferred to a 96-well P81 filter plate, and washed (4×200 μL per well) with 75 mM phosphoric acid. Microscint 40 scintillation liquid (50 μL) was added to each well, and the amount of ^32P incorporation for each sample was measured using a Packard Topcount microplate scintillation counter.

GSK-3β = GSK-3β (Homo sapiens, UniProt P49841); test: Kinase assay GSK-3β; type: biochemical; settings: Table 2; read-out: Kinase Inhibition IC50 GSK-3β
GSK-3β, sequence (P49841 whole entry): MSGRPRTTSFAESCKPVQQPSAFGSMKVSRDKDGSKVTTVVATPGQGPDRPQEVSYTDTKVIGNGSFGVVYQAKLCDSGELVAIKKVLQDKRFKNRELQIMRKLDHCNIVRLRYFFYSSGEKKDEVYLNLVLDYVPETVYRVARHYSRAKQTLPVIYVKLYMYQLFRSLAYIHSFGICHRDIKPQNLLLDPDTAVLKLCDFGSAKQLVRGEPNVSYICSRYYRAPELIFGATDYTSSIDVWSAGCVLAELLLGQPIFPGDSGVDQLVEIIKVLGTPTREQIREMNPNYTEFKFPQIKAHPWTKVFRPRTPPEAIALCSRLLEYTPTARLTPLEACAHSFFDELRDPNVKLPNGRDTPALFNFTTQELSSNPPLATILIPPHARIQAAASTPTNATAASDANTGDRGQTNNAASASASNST
Procedure: as §1

A549 = test: 72-h MTT cytotoxicity assay A549; type: cell-based; settings: Homo sapiens, A549, 72 h, Table 4
Procedure: (§3) MTT cytotoxicity assay. […] Standard 72-h MTT (thiazolyl blue; 3-[4,5-dimethylthiazol-2-yl]-2,5-diphenyltetrazolium bromide) assays were performed (Haselsberger, K.; Peterson, D. C.; Thomas, D. G.; Darling, J. L. Anti Cancer Drugs 1996, 7, 331-8; Loveland, B. E.; Johns, T. G.; Mackay, I. R.; Vaillant, F.; Wang, Z. X.; Hertzog, P. J. Biochemistry International 1992, 27, 501-10). In short: cells were seeded into 96-well plates according to doubling time and incubated overnight at 37° C. Test compounds were made up in DMSO and a 1/3 dilution series prepared in 100 μL cell media, added to cells (in triplicates) and incubated for 72 ho at 37° C. MTT was made up as a stock of 5 mg/mL in cell media and filter-sterilised. Media was removed from cells followed by a wash with 200 μL PBS.
(§4) MTT solution was then added at 20 μL per well and incubated in the dark at 37° C. for 4 h. MTT solution was removed and cells again washed with 200 μL PBS. MTT dye was solubilised with 200 μL per well of DMSO with agitation.

HT29 = test: 72-h MTT cytotoxicity assay HT29; type: cell-based; settings: Homo sapiens, HT-29, 72 h, Table 4
Procedure: as §3, §4

Saos-2 = test: 72-h MTT cytotoxicity assay Saos-2; type: cell-based; settings: Homo sapiens, SAOS-2, 72 h, Table 4
Procedure: as §3, §4

CDK9/cyclin T1 = CDK9/cyclin T1 (Homo sapiens, UniProt P50750); test: CDK9 assay; type: biochemical; settings: Table 2; read-out: Kinase Inhibition IC50 CDK9 cyclin T1
CDK9/cyclin T1, sequence (P50750 whole entry): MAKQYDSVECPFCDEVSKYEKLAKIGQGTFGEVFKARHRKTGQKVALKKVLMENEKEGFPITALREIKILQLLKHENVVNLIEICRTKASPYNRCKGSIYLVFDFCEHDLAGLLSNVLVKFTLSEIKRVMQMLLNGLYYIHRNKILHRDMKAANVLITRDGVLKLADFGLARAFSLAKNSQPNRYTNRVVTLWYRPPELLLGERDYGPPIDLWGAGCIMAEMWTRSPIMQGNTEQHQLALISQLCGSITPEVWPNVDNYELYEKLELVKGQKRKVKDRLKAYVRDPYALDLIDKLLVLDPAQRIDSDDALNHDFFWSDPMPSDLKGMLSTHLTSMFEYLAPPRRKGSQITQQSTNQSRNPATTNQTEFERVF
CDK9/cyclin T1, sequence (O60563 whole entry partner): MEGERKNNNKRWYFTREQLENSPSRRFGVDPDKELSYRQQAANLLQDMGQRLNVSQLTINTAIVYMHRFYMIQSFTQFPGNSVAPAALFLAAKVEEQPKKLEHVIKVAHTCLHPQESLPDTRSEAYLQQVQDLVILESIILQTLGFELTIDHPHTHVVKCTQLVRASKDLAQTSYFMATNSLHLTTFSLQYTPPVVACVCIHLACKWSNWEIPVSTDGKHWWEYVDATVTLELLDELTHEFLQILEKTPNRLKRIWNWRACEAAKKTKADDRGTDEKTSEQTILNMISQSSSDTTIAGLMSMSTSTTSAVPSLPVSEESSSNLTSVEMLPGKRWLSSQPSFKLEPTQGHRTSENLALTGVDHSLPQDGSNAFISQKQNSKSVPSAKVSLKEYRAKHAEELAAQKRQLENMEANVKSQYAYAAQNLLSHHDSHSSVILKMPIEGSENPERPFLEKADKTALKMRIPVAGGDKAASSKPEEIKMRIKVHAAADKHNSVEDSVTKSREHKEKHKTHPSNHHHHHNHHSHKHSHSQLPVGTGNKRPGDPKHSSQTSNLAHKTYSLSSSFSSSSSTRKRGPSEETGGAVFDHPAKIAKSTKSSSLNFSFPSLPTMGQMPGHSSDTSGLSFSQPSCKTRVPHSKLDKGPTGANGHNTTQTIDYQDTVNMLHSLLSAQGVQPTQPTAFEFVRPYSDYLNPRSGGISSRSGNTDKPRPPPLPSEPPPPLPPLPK
Procedure: as §1, §2

CDK1/cyclin B, sequence (P06493 whole entry): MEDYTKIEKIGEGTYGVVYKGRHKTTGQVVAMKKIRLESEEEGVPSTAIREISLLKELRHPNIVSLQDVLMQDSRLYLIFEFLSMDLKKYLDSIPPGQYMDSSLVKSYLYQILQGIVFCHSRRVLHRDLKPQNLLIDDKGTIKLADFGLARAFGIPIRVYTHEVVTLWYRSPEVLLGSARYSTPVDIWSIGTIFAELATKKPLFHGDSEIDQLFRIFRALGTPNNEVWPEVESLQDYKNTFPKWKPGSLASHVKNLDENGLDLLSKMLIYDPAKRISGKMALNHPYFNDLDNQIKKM
CDK1/cyclin B, sequence (P14635 whole entry partner): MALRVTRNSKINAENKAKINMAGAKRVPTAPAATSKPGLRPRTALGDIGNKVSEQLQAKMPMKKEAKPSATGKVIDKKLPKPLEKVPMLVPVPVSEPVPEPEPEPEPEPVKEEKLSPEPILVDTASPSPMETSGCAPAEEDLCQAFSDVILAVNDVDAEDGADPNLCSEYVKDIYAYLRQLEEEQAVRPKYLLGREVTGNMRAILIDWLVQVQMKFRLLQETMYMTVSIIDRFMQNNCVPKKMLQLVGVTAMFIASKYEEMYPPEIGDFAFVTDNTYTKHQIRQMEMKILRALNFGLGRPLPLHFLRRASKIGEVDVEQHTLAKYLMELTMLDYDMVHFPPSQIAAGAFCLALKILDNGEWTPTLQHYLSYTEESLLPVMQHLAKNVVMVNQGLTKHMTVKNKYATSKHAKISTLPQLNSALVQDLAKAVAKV

Row | IC50 (CDK1/cyclin B) [nM] | IC50 (CDK2/cyclin A) [nM] | IC50 (CDK2/cyclin E) [nM] | IC50 (CDK4/cyclin D1) [nM] | IC50 (CDK7/cyclin H) [nM] | IC50 (GSK-3β) [nM] | IC50 (CDK9/cyclin T1) [nM] | Structure (SMILES) | IC50 (A549) [nM] | IC50 (HT29) [nM] | IC50 (Saos-2) [nM]
1 | 150 | 61 | 65 | 42 | 480 | 820 | – | CCNc1nc(C)c(-c2ccnc(Nc3cccc(CO)c3)n2)s1 [Compound 68, {3-[4-(2-Ethylamino-4-methyl-thiazol-5-yl)-pyrimidin-2-ylamino]-phenyl}-methanol] | – | – | –
2 | 1800 | 140 | 150 | 3200 | 11000 | 5400 | – | Cc1nc(N)sc1-c1ccnc(Nc2ccc(S(C)(=O)=O)cc2)n1 [Compound 76, [4-(2-Amino-4-methyl-thiazol-5-yl)-pyrimidin-2-yl]-(4-methanesulfonyl-phenyl)-amine] | 5800 | 1800 | 1300
3 | 480 | 150 | 25 | 670 | 370 | 1000 | – | CNc1nc(C)c(-c2ccnc(Nc3cccc(CNS(C)(=O)=O)c3)n2)s1 [Compound 83, N-{3-[4-(4-Methyl-2-methylamino-thiazol-5-yl)-pyrimidin-2-ylamino]-benzyl}-methanesulfonamide] | – | – | –
4 | 2700 | 1300 | 14 | 2300 | 4000 | 1200 | – | CNc1nc(C)c(-c2ccnc(Nc3cccc(CNS(=O)(=O)C(F)(F)F)c3)n2)s1 [Compound 82, C,C,C-Trifluoro-N-{3-[4-(4-methyl-2-methylamino-thiazol-5-yl)-pyrimidin-2-ylamino]-benzyl}-methanesulfonamide] | – | – | –
5 | 5600 | 570 | 280 | 670 | 370 | – | 42 | Cc1nc(NC(=O)CCN)sc1-c1ccnc(Nc2cccc([N+](=O)[O-])c2)n1 [Compound 13, 3-Amino-N-{4-methyl-5-[2-(3-nitro-phenylamino)-pyrimidin-4-yl]-thiazol-2-yl}-propionamide] | 3100 | 2800 | 1900
6 | 140 | 50 | 76 | 300 | 430 | 300 | – | Cc1nc(N)sc1-c1ccnc(Nc2cccc(S(C)(=O)=O)c2)n1 [Compound 84, [4-(2-Amino-4-methyl-thiazol-5-yl)-pyrimidin-2-yl]-(3-methanesulfonyl-phenyl)-amine] | – | – | –

More lines, now with the values behind:

Row | Structure (SMILES) | IC50 (CDK1/cyclin B) [nM] | IC50 (CDK2/cyclin A) [nM] | IC50 (CDK2/cyclin E) [nM] | IC50 (CDK4/cyclin D1) [nM] | IC50 (CDK7/cyclin H) [nM] | IC50 (GSK-3β) [nM] | IC50 (CDK9/cyclin T1) [nM] | IC50 (A549) [nM] | IC50 (HT29) [nM] | IC50 (Saos-2) [nM]
7 | Cc1c(-c2ccnc(Nc3ccc(N4CCOCC4)cc3)n2)sc(=O)n1C [Compound 92, 3,4-Dimethyl-5-[2-(4-morpholin-4-yl-phenylamino)-pyrimidin-4-yl]-3H-thiazol-2-one] | 15000 | 1200 | 640 | 1300 | 2800 | 470 | – | – | – | –
8 | Cc1nc(NC(=O)CNCCOCCO)sc1-c1ccnc(Nc2ccc(N(C)C)cc2)n1 [Compound 29, N-{5-[2-(4-Dimethylamino-phenylamino)-pyrimidin-4-yl]-4-methyl-thiazol-2-yl}-2-[2-(2-hydroxy-ethoxy)-ethylamino]-acetamide] | 860 | 490 | 470 | 1100 | 1200 | 560 | – | 690 | 2600 | 720
9 | Cc1nc(NC(=O)CCN2CCOCC2)sc1-c1ccnc(Nc2ccc(Cl)cc2)n1 [Compound 35, N-{5-[2-(4-Chloro-phenylamino)-pyrimidin-4-yl]-4-methyl-thiazol-2-yl}-3-morpholin-4-yl-propionamide] | 15000 | 3000 | 800 | 4700 | – | – | 1800 | 15000 | 7700 | 26000
10 | CC(=O)Nc1ccc(Nc2nccc(-c3sc(C)nc3C)n2)cc1 [Compound 45, N-{4-[4-(2,4-Dimethyl-thiazol-5-yl)-pyrimidin-2-ylamino]-phenyl}-acetamide] | 2500 | 840 | 660 | 370 | 17000 | – | 240 | 2600 | 2200 | 2800
11 | CCN(CC)CCNCCC(=O)Nc1nc(C)c(-c2ccnc(Nc3ccc(Cl)cc3)n2)s1 [Compound 36, N-{5-[2-(4-Chloro-phenylamino)-pyrimidin-4-yl]-4-methyl-thiazol-2-yl}-3-(2-diethylamino-ethylamino)-propionamide] | 33000 | 13000 | 3400 | 8800 | 4000 | – | 4800 | 26000 | 9600 | 38000
12 | Cc1nc(C)c(-c2ccnc(Nc3ccc(N4CCN(CCO)CC4)cc3)n2)s1 [Compound 9, 2-(4-{4-[4-(2,4-Dimethyl-thiazol-5-yl)-pyrimidin-2-ylamino]-phenyl}-piperazin-1-yl)-ethanol] | 5200 | 1200 | 2200 | 430 | 1300 | – | 210 | 3000 | 2000 | 2000
13 | Cc1nc(NC(=O)CCNCCN2CCOCC2)sc1-c1ccnc(Nc2ccc(Cl)cc2)n1 [Compound 37, N-{5-[2-(4-Chloro-phenylamino)-pyrimidin-4-yl]-4-methyl-thiazol-2-yl}-3-(2-morpholin-4-yl-ethylamino)-propionamide] | > 100000 | 16000 | 8000 | 18000 | – | – | 6300 | 35000 | 15000 | 73000
14 | Cc1nc(NC(=O)CCl)sc1-c1ccnc(Nc2ccc(Cl)cc2)n1 [Compound 34, 2-Chloro-N-{5-[2-(4-chloro-phenylamino)-pyrimidin-4-yl]-4-methyl-thiazol-2-yl}-acetamide] | – | – | 1400 | 7000 | – | 730 | – | 3900 | 3200 | 3300
15 | COc1ccc(Nc2nccc(-c3sc(NC(=O)CCN4CCOCC4)nc3C)n2)cc1 [Compound 38, N-{5-[2-(4-Methoxy-phenylamino)-pyrimidin-4-yl]-4-methyl-thiazol-2-yl}-3-morpholin-4-yl-propionamide] | 1900 | 580 | 2700 | 1800 | – | – | 1100 | 2700 | 1700 | 5300
16 | COc1ccc(Nc2nccc(-c3sc(NC(=O)CCN4CCN(C)CC4)nc3C)n2)cc1 [Compound 40, N-{5-[2-(4-Methoxy-phenylamino)-pyrimidin-4-yl]-4-methyl-thiazol-2-yl}-3-(4-methyl-piperazin-1-yl)-propionamide] | 61000 | 14000 | 64000 | 7400 | – | – | 8900 | 4400 | 730 | 4300
